# Measurements: patent US20100075969A1, “Angiogenesis” (UNIVERSITY OF LEICESTER, priority 2006, published 2010)
# How the values were obtained:
# [1] = system: dermal microvascular endothelial cells; assay: Scratch (wound healing) assay, dermal microvascular endothelial cells; assay type: cell-based, human; details: 10 nM ICI 118,551 or 1 μM salbutamol
# Description: Endothelial cells were grown to confluence in medium on plastic tissue culture dishes (Fisher Scientific, Pittsburgh, Pa.) coated with 60 μg/ml collagen I (Vitrogen 100, Collagen Corp., Palo Alto, Calif.) in PBS for 1 hour at 37° C. […] Demarcated areas of each wound were photographed on an inverted Nikon Diaphot microscope at the time of wounding (time 0) up to wound healing as described in Pullar et al., (2003) J Biol Chem 278 (25), 22555-22562. Image J was used to measure each demarcated wound area at time 0 and 20 hours post wounding and the results were averaged to calculate the % healing for control and β2-AR ligand-treated cells.
# endothelial cells = assay: In vitro model of angiogenesis: tubule formation on Matrigel; assay type: cell-based
# Description: An experimental in vitro model was employed to observe the effect of β2-AR ligands (ie agonists and antagonists) on endothelial cell vessel formation. […] The endothelial cells plated on the top of the Matrigel were maintained in a 37° C. incubator with 5% CO2 Tubule formation was observed every 4 hours up to 21 hours using an inverted Nikon Diaphot microscope.
# aortic rings = assay: Rat aortic ring assay (capillary outgrowth); assay type: cell-based; details: after 90 hours; 10 nM ICI 118,551 or 1 μM salbutamol; vs untreated
# Description: A rat aortic ring assay (as described in Nicosia and Ottinetti (1990) Lab Invest 63 (1), 115-122; and Diglio et al (1989) Lab Invest 60 (4), 523-531) was used to study the effect of β2-AR ligands on vessel formation. Rat aorta was obtained from animals that were euthanised under a Home Office Approved Schedule 1 method. The aorta was cut into small rings with sterile scissors and each piece was submerged under a 50 μl bead of Matrigel in the bottom of each in a 24-well dish. […] Vessel growth was observed using an inverted Nikon Diaphot microscope every 30 hours and images were captured as described in Pullar et al (2005) J Cell Sci 118 (Pt 9), 2023-2034; Pullar et al (2006) Mol Biol Cell and Pullar et al (2001) Cell Motil Cytoskeleton 50 (4), 207-217.
# [2] = system: chick chorioallantoic membrane (CAM); assay: Chick chorioallantoic membrane (CAM) assay; assay type: in vivo; details: day 8 chick embryos, 48 hours; 10 μM agonist, 10 μM forskolin or 10 nM ICI 118,551; control 15
# Description: Fertilised chicken eggs were obtained within the first two days of embryonic development, and were cleaned and incubated at 37° C. for 24 hours. On day 3 of development, 1-2 ml of albumin was removed from the apex end of each egg with a sterile needle. A window of 1.5×1.5 cm was created in the shell with a Dremmel tool, and was sealed with clear adhesive tape. […] Images of the exposed vasculature were captured 48 hours later using a Nikon microscope/imaging system. Scale bar=1 mm. Bifurcation points were counted in four fields for the control/treatment groups.
# [3] = system: dermal microvascular endothelial cells; assay: Galvanotaxis in applied electric field, dermal microvascular endothelial cells; assay type: cell-based, human; details: electric field 100 mV/mm
# Description: (§1) Endothelial cells were seeded at low density in medium within electrostatic chambers for 2-3 hours prior to exposure to an electric field (EF). A roof consisting of a No 1 cover slip was applied and sealed on top of the chamber, as previously described (in Pullar et al (2005) J Cell Sci 118 (Pt 9), 2023-2034; Pullar et al (2006) Mol Biol Cell and Pullar et al (2001) Cell Motil Cytoskeleton 50 (4), 207-217). A direct current EF of 100 mV/mm was applied through agar bridges connecting silver/silver chloride electrodes to the culture medium at either side of the chamber. The chamber was placed on an inverted microscope with temperature controlled at 37° C.
# (§2) Time-lapse images were recorded every 10 minutes over 1 hour and analyzed with Improvision software as previously described (Pullar et al (2005) J Cell Sci 118 (Pt 9), 2023-2034; Pullar et al (2006) Mol Biol Cell and Pullar et al (2001) Cell Motil Cytoskeleton 50 (4), 207-217). […] Therefore, the average of directedness values of a population of cells gives an objective quantification of how, directionally, cells have moved within the electric field. […] Migration rate was analyzed with the following two parameters, ie trajectory speed (μm/min) is the total length of the migration trajectory of a cell divided by the given period of time (ie 60 minutes).
# [4] = system: aortic macrovascular endothelial cells; assay: Galvanotaxis in applied electric field, aortic macrovascular endothelial cells; assay type: cell-based, human; details: electric field 100 mV/mm
# Description: as §1, §2
# MTLn3 cells = assay: Galvanotaxis in applied electric field, MTLn3 mammary adenocarcinoma cells; assay type: cell-based
# B16-BL6 melanoma cells = assay: β2-AR/melanoma in-vivo study (B16-BL6 in SKH1 mice); details: for tumour surface area / tumour average surface area: s.c. pump, ICI 118,551 0.75 mg/kg/day or salbutamol 3 mg/kg/day, 7 mice per group
# Description: Twenty one, 5 week-old female SKH1 mice (immunocompetent, hairless albino strain, Charles River, Wilmington, Mass.) weighing 18 g-25 g were divided into 3 groups of 7 mice.
# Melanomas were imaged daily by both transillumination and surface photography at 2× magnification, using an upright Nikon microscope controlled by Pixera software (San Jose, Calif.). Mice were sacrificed after 11 days by CO2 asphyxiation, and the tumor, lungs and the liver were excised and fixed in 10% buffered formalin for 7 days.
# All mice were sacrificed by CO2 asphyxiation, 11 days post melanoma cell injection. The tumours were excised from their sub-dermal location, fixed in saline-buffered 10% formalin for 10 days, and then weighed. The average weight of the tumours from each group was calculated and statistically analysed.
# [5] = 1 μM salbutamol, control cosine=0.5
SMILES,increase in rate of wound closure [1] [%],"time to highly organized, mature capillary network on Matrigel (endothelial cells; 10 nM ICI 118,551, untreated cells: within 21 hours) [h]",capillary outgrowth from cut edges of aortic rings (aortic rings),number of vessel bifurcation points [2],"increase in directional migration ([3]; 10 nM ICI 118,551) [%]","increase in directional migration ([4]; 10 nM ICI 118,551) [%]",effect on galvanotaxis (MTLn3 cells),"average weight of tumours (B16-BL6 melanoma cells; 11 days post melanoma cell injection, vs control group)","number of mice without any signs of tumour development (B16-BL6 melanoma cells; after 3 days, of 7 mice, ICI 118,551 0.75 mg/kg/day)",tumour surface area (B16-BL6 melanoma cells; after 3 days),"number of mice with no visible signs of tumour development (B16-BL6 melanoma cells; after 7 days and by end of study (11 days), of 7 mice, ICI 118,551 0.75 mg/kg/day)",tumour average surface area (B16-BL6 melanoma cells; after 7 days),"size of excised tumours (photograph) (B16-BL6 melanoma cells; at eleven days, vs control)","capillary network formed on Matrigel (endothelial cells; by 21 hours, 1 μM salbutamol)","migration directedness (cosine) [3, 5]","migration directedness (cosine) [4, 5]",reduction of directional migration (MTLn3 cells),"surface area of the very large tumour of one mouse (B16-BL6 melanoma cells; after 7 days, single mouse, salbutamol 3 mg/kg/day) [mm^2]"
"Cc1ccc(OCC(O)C(C)NC(C)C)c2c1CCC2 (stereo not drawn) [ICI 118,551]",40,≤ 12,decreased the length of the capillaries,> 50,≤ 60,≤ 60,little effect on galvanotaxis,statistically lower than that for the control group,two,1.8+/−0.61 mm^2,one,4.4+/−1.5 mm^2,much smaller than those in the control sample,,,,,
C=C[C@@]1(C)CC(=O)[C@]2(O)[C@@]3(C)[C@@H](O)CCC(C)(C)[C@@H]3[C@H](O)[C@H](OC(C)=O)[C@@]2(C)O1 [forskolin],,,,5,,,,,,,,,,,,,,
CC(C)(C)NCC(O)c1ccc(O)c(CO)c1 (stereo not drawn) [salbutamol],40,,significantly increased the length and number of the capillaries,4,,,,,,4.1+/−1.3 mm^2,,10.4+/−2.9 mm^2,,"disorganized, immature capillary network",0,0,more than 50%,24.8
